According to patent US20250353873A1, “COMPOUNDS AND METHODS FOR MODULATING APOE EXPRESSION” (Ionis Pharmaceuticals, Inc., priority 2024, published 2025):
Strand notation (5' to 3'): a small letter for the sugar, then the base; units joined by * are phosphorothioate-linked, units joined directly phosphodiester-linked; [ ] holds rarer units or linkages, { } end groups; capitals alone tell only the bases. [ms] = mesyl phosphoramidate linkage; e = 2'-O-(2-methoxyethyl) (MOE); k = constrained ethyl (cEt); [5mC] = 5-methylcytosine; d = 2'-deoxy (DNA)

These substances were tested on human APOE RNA (assay: Dose-dependent inhibition of human APOE RNA in HepG2 cells, electroporation, 24 hours (Example 6)). Details: not given.
Type: cell-based
In short: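 IC50 derived from APOE RNA levels, given as percent of untreated control after GAPDH normalization (probe sets RTS3073 and RTS104). Oligonucleotides were delivered at multiple concentrations by electroporation into HepG2 cells seeded at 50,000 per well.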

Substance	IC50
1736534 (e[5mC]*eT*eT*eG*eGeT*dG[ms]dA[ms]dA[ms]dT*d[5mC]*dT*dT*dT*dA[ms]dT*kT*kA*eA*eA; antisense) [Compound 1736534]	890 nM
1736535 (e[5mC]*eT*eT*eG*eGkT*dG[ms]dA[ms]dA[ms]dT*d[5mC]*dT*dT*dT*dA[ms]dT*eT*eA*eA*eA; antisense) [Compound 1736535]	1660 nM
1736536 (e[5mC]*eT*eT*eG*kGkT*dG[ms]dA[ms]dA[ms]dT*d[5mC]*dT*dT*dT*dA[ms]dT*eT*eA*eA*eA; antisense) [Compound 1736536]	620 nM

Same assay, conditions: 5 nM

Substance	APOE RNA (% UTC)
1736534 (e[5mC]*eT*eT*eG*eGeT*dG[ms]dA[ms]dA[ms]dT*d[5mC]*dT*dT*dT*dA[ms]dT*kT*kA*eA*eA; antisense) [Compound 1736534]	99 % UTC
1736535 (e[5mC]*eT*eT*eG*eGkT*dG[ms]dA[ms]dA[ms]dT*d[5mC]*dT*dT*dT*dA[ms]dT*eT*eA*eA*eA; antisense) [Compound 1736535]	90 % UTC
1736536 (e[5mC]*eT*eT*eG*kGkT*dG[ms]dA[ms]dA[ms]dT*d[5mC]*dT*dT*dT*dA[ms]dT*eT*eA*eA*eA; antisense) [Compound 1736536]	97 % UTC

Same assay, conditions: 13 nM

Substance	APOE RNA (% UTC)
1736534 (e[5mC]*eT*eT*eG*eGeT*dG[ms]dA[ms]dA[ms]dT*d[5mC]*dT*dT*dT*dA[ms]dT*kT*kA*eA*eA; antisense) [Compound 1736534]	110 % UTC
1736535 (e[5mC]*eT*eT*eG*eGkT*dG[ms]dA[ms]dA[ms]dT*d[5mC]*dT*dT*dT*dA[ms]dT*eT*eA*eA*eA; antisense) [Compound 1736535]	96 % UTC
1736536 (e[5mC]*eT*eT*eG*kGkT*dG[ms]dA[ms]dA[ms]dT*d[5mC]*dT*dT*dT*dA[ms]dT*eT*eA*eA*eA; antisense) [Compound 1736536]	102 % UTC

Same assay, conditions: 33 nM

Substance	APOE RNA (% UTC)
1736534 (e[5mC]*eT*eT*eG*eGeT*dG[ms]dA[ms]dA[ms]dT*d[5mC]*dT*dT*dT*dA[ms]dT*kT*kA*eA*eA; antisense) [Compound 1736534]	93 % UTC
1736535 (e[5mC]*eT*eT*eG*eGkT*dG[ms]dA[ms]dA[ms]dT*d[5mC]*dT*dT*dT*dA[ms]dT*eT*eA*eA*eA; antisense) [Compound 1736535]	99 % UTC
1736536 (e[5mC]*eT*eT*eG*kGkT*dG[ms]dA[ms]dA[ms]dT*d[5mC]*dT*dT*dT*dA[ms]dT*eT*eA*eA*eA; antisense) [Compound 1736536]	79 % UTC

Same assay, conditions: 82 nM

Substance	APOE RNA (% UTC)
1736534 (e[5mC]*eT*eT*eG*eGeT*dG[ms]dA[ms]dA[ms]dT*d[5mC]*dT*dT*dT*dA[ms]dT*kT*kA*eA*eA; antisense) [Compound 1736534]	103 % UTC
1736535 (e[5mC]*eT*eT*eG*eGkT*dG[ms]dA[ms]dA[ms]dT*d[5mC]*dT*dT*dT*dA[ms]dT*eT*eA*eA*eA; antisense) [Compound 1736535]	93 % UTC
1736536 (e[5mC]*eT*eT*eG*kGkT*dG[ms]dA[ms]dA[ms]dT*d[5mC]*dT*dT*dT*dA[ms]dT*eT*eA*eA*eA; antisense) [Compound 1736536]	79 % UTC

Same assay, conditions: 205 nM

Substance	APOE RNA (% UTC)
1736534 (e[5mC]*eT*eT*eG*eGeT*dG[ms]dA[ms]dA[ms]dT*d[5mC]*dT*dT*dT*dA[ms]dT*kT*kA*eA*eA; antisense) [Compound 1736534]	65 % UTC
1736535 (e[5mC]*eT*eT*eG*eGkT*dG[ms]dA[ms]dA[ms]dT*d[5mC]*dT*dT*dT*dA[ms]dT*eT*eA*eA*eA; antisense) [Compound 1736535]	67 % UTC
1736536 (e[5mC]*eT*eT*eG*kGkT*dG[ms]dA[ms]dA[ms]dT*d[5mC]*dT*dT*dT*dA[ms]dT*eT*eA*eA*eA; antisense) [Compound 1736536]	63 % UTC

Same assay, conditions: 512 nM

Substance	APOE RNA (% UTC)
1736534 (e[5mC]*eT*eT*eG*eGeT*dG[ms]dA[ms]dA[ms]dT*d[5mC]*dT*dT*dT*dA[ms]dT*kT*kA*eA*eA; antisense) [Compound 1736534]	50 % UTC
1736535 (e[5mC]*eT*eT*eG*eGkT*dG[ms]dA[ms]dA[ms]dT*d[5mC]*dT*dT*dT*dA[ms]dT*eT*eA*eA*eA; antisense) [Compound 1736535]	69 % UTC
1736536 (e[5mC]*eT*eT*eG*kGkT*dG[ms]dA[ms]dA[ms]dT*d[5mC]*dT*dT*dT*dA[ms]dT*eT*eA*eA*eA; antisense) [Compound 1736536]	58 % UTC

Same assay, conditions: 1,280 nM

Substance	APOE RNA (% UTC)
1736534 (e[5mC]*eT*eT*eG*eGeT*dG[ms]dA[ms]dA[ms]dT*d[5mC]*dT*dT*dT*dA[ms]dT*kT*kA*eA*eA; antisense) [Compound 1736534]	45 % UTC
1736535 (e[5mC]*eT*eT*eG*eGkT*dG[ms]dA[ms]dA[ms]dT*d[5mC]*dT*dT*dT*dA[ms]dT*eT*eA*eA*eA; antisense) [Compound 1736535]	53 % UTC
1736536 (e[5mC]*eT*eT*eG*kGkT*dG[ms]dA[ms]dA[ms]dT*d[5mC]*dT*dT*dT*dA[ms]dT*eT*eA*eA*eA; antisense) [Compound 1736536]	43 % UTC

Same assay, conditions: 3,200 nM

Substance	APOE RNA (% UTC)
1736534 (e[5mC]*eT*eT*eG*eGeT*dG[ms]dA[ms]dA[ms]dT*d[5mC]*dT*dT*dT*dA[ms]dT*kT*kA*eA*eA; antisense) [Compound 1736534]	24 % UTC
1736535 (e[5mC]*eT*eT*eG*eGkT*dG[ms]dA[ms]dA[ms]dT*d[5mC]*dT*dT*dT*dA[ms]dT*eT*eA*eA*eA; antisense) [Compound 1736535]	24 % UTC
1736536 (e[5mC]*eT*eT*eG*kGkT*dG[ms]dA[ms]dA[ms]dT*d[5mC]*dT*dT*dT*dA[ms]dT*eT*eA*eA*eA; antisense) [Compound 1736536]	25 % UTC

Same assay, conditions: 8,000 nM

Substance	APOE RNA (% UTC)
1736534 (e[5mC]*eT*eT*eG*eGeT*dG[ms]dA[ms]dA[ms]dT*d[5mC]*dT*dT*dT*dA[ms]dT*kT*kA*eA*eA; antisense) [Compound 1736534]	19 % UTC
1736535 (e[5mC]*eT*eT*eG*eGkT*dG[ms]dA[ms]dA[ms]dT*d[5mC]*dT*dT*dT*dA[ms]dT*eT*eA*eA*eA; antisense) [Compound 1736535]	51 % UTC
1736536 (e[5mC]*eT*eT*eG*kGkT*dG[ms]dA[ms]dA[ms]dT*d[5mC]*dT*dT*dT*dA[ms]dT*eT*eA*eA*eA; antisense) [Compound 1736536]	9 % UTC

Same assay, conditions: 20,000 nM

Substance	APOE RNA (% UTC)
1736534 (e[5mC]*eT*eT*eG*eGeT*dG[ms]dA[ms]dA[ms]dT*d[5mC]*dT*dT*dT*dA[ms]dT*kT*kA*eA*eA; antisense) [Compound 1736534]	25 % UTC
1736535 (e[5mC]*eT*eT*eG*eGkT*dG[ms]dA[ms]dA[ms]dT*d[5mC]*dT*dT*dT*dA[ms]dT*eT*eA*eA*eA; antisense) [Compound 1736535]	13 % UTC
1736536 (e[5mC]*eT*eT*eG*kGkT*dG[ms]dA[ms]dA[ms]dT*d[5mC]*dT*dT*dT*dA[ms]dT*eT*eA*eA*eA; antisense) [Compound 1736536]	6 % UTC

The substances below were run on human APOE RNA (assay: Activity in APOE C57BL/6NTac-Apoeem7250 knock-in mice, single ICV bolus, 4 weeks (Example 10)). Details: Cortex; C57BL/6NTac-Apoeem7250 knock-in mice, single ICV bolus 300 μg, 4 weeks (Table 22).
Type: in vivo
Method: Modified oligonucleotides described above were tested in the APOE C57BL/6NTac-Apoeem7250 knock-in mouse model described above.
APOE C57BL/6NTac-Apoeem7250 knock-in mice were divided into groups of 2-4 mice each. Each mouse received a single ICV bolus of 300 μg of modified oligonucleotide. A group of 3-4 mice received a single ICV bolus with PBS as a negative control.
Four weeks post treatment, mice were sacrificed and RNA was extracted from cortical brain tissue and spinal cord for quantitative real-time RT-PCR analysis of RNA expression of APOE using human primer probe set RTS3073 (described herein above). APOE RNA levels were normalized to mouse Ppia. Mouse Ppia was amplified using primer probe set m_cyclo24 (described herein above). Results are presented as percent human APOE RNA relative to the amount of human APOE RNA in PBS treated animals, (% control). Each experiment is identified in separate tables below.

Substance	APOE RNA (% control) Cortex
1736534 (e[5mC]*eT*eT*eG*eGeT*dG[ms]dA[ms]dA[ms]dT*d[5mC]*dT*dT*dT*dA[ms]dT*kT*kA*eA*eA; antisense) [Compound 1736534]	31 % control
1736535 (e[5mC]*eT*eT*eG*eGkT*dG[ms]dA[ms]dA[ms]dT*d[5mC]*dT*dT*dT*dA[ms]dT*eT*eA*eA*eA; antisense) [Compound 1736535]	39 % control
1736536 (e[5mC]*eT*eT*eG*kGkT*dG[ms]dA[ms]dA[ms]dT*d[5mC]*dT*dT*dT*dA[ms]dT*eT*eA*eA*eA; antisense) [Compound 1736536]	31 % control

Same assay, conditions: Spinal Cord; C57BL/6NTac-Apoeem7250 knock-in mice, single ICV bolus 300 μg, 4 weeks (Table 22)

Substance	APOE RNA (% control) Spinal Cord
1736534 (e[5mC]*eT*eT*eG*eGeT*dG[ms]dA[ms]dA[ms]dT*d[5mC]*dT*dT*dT*dA[ms]dT*kT*kA*eA*eA; antisense) [Compound 1736534]	55 % control
1736535 (e[5mC]*eT*eT*eG*eGkT*dG[ms]dA[ms]dA[ms]dT*d[5mC]*dT*dT*dT*dA[ms]dT*eT*eA*eA*eA; antisense) [Compound 1736535]	63 % control
1736536 (e[5mC]*eT*eT*eG*kGkT*dG[ms]dA[ms]dA[ms]dT*d[5mC]*dT*dT*dT*dA[ms]dT*eT*eA*eA*eA; antisense) [Compound 1736536]	53 % control

What follows are substances tested on human APOE RNA (assay: Activity in APOE C57BL/6NTac-Apoeem7250 knock-in mice, single ICV bolus, 16 weeks (Example 12)). Details: cortex; single ICV bolus 300 μg; 16 weeks post treatment; normalized to mouse Ppia.
Type: in vivo
In short: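 A single 300 μg intracerebroventricular dose was given, with PBS-treated mice as reference; cortical and spinal cord tissue was taken 16 weeks later. RT-qPCR quantified human APOE RNA, Ppia-normalized, expressed relative to PBS animals (% control).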

Substance	APOE RNA (% control) Cortex
1736534 (e[5mC]*eT*eT*eG*eGeT*dG[ms]dA[ms]dA[ms]dT*d[5mC]*dT*dT*dT*dA[ms]dT*kT*kA*eA*eA; antisense) [Compound 1736534]	46 % control
1736535 (e[5mC]*eT*eT*eG*eGkT*dG[ms]dA[ms]dA[ms]dT*d[5mC]*dT*dT*dT*dA[ms]dT*eT*eA*eA*eA; antisense) [Compound 1736535]	47 % control
1736536 (e[5mC]*eT*eT*eG*kGkT*dG[ms]dA[ms]dA[ms]dT*d[5mC]*dT*dT*dT*dA[ms]dT*eT*eA*eA*eA; antisense) [Compound 1736536]	36 % control

Same assay, conditions: spinal cord; single ICV bolus 300 μg; 16 weeks post treatment; normalized to mouse Ppia

Substance	APOE RNA (% control) Spinal Cord
1736534 (e[5mC]*eT*eT*eG*eGeT*dG[ms]dA[ms]dA[ms]dT*d[5mC]*dT*dT*dT*dA[ms]dT*kT*kA*eA*eA; antisense) [Compound 1736534]	34 % control
1736535 (e[5mC]*eT*eT*eG*eGkT*dG[ms]dA[ms]dA[ms]dT*d[5mC]*dT*dT*dT*dA[ms]dT*eT*eA*eA*eA; antisense) [Compound 1736535]	26 % control
1736536 (e[5mC]*eT*eT*eG*kGkT*dG[ms]dA[ms]dA[ms]dT*d[5mC]*dT*dT*dT*dA[ms]dT*eT*eA*eA*eA; antisense) [Compound 1736536]	31 % control
